Source: the supplement of paper PMC10307832

Assays:
Experiment in all cases: relative viability (nuclei count vs DMSO), 5 days (fraction); higher = more cells survive
Bemcentinib + Alpelisib = compound: Nc1nc(Nc2ccc3c(c2)CC[C@@H](N2CCCC2)CC3)nn1-c1cc2c(nn1)-c1ccccc1CCC2 [Bemcentinib] + Cc1nc(NC(=O)N2CCC[C@H]2C(N)=O)sc1-c1ccnc(C(C)(C)C(F)(F)F)c1 [Alpelisib] (partner 2 µM)
Summary of the method: (§1)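 Lung cancer cell lines in 1536-well plates got either a single drug or a fixed anchor-drug dose together with five library-drug doses (not always all listed) in √10 steps, by pin tool, on the day after seeding. Nuclei were counted after 5 days, and relative viability is the treated-to-vehicle ratio of nuclei counts. Values are medians of duplicate plates.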

Bemcentinib + OSI-027 = compound: Nc1nc(Nc2ccc3c(c2)CC[C@@H](N2CCCC2)CC3)nn1-c1cc2c(nn1)-c1ccccc1CCC2 [Bemcentinib] + COc1cccc2cc(-c3nc([C@H]4CC[C@H](C(=O)O)CC4)n4ncnc(N)c34)[nH]c12 [OSI-027] (partner 0.5 µM)
Summary of the method: as §1

Bemcentinib + Crizotinib = compound: Nc1nc(Nc2ccc3c(c2)CC[C@@H](N2CCCC2)CC3)nn1-c1cc2c(nn1)-c1ccccc1CCC2 [Bemcentinib] + C[C@@H](Oc1cc(-c2cnn(C3CCNCC3)c2)cnc1N)c1c(Cl)ccc(F)c1Cl [Crizotinib] (partner 1 µM)
Summary of the method: as §1

Bemcentinib + Foretinib = compound: Nc1nc(Nc2ccc3c(c2)CC[C@@H](N2CCCC2)CC3)nn1-c1cc2c(nn1)-c1ccccc1CCC2 [Bemcentinib] + COc1cc2c(Oc3ccc(NC(=O)C4(C(=O)Nc5ccc(F)cc5)CC4)cc3F)ccnc2cc1OCCCN1CCOCC1 [Foretinib] (partner 0.25 µM)
Summary of the method: as §1

Cell Line	relative viability (Bemcentinib + Alpelisib; first compound 0.04 µM)	relative viability (Bemcentinib + Alpelisib; first compound 0.1265 µM)	relative viability (Bemcentinib + Alpelisib; first compound 0.4 µM)	relative viability (Bemcentinib + Alpelisib; first compound 1.265 µM)	relative viability (Bemcentinib + Alpelisib; first compound 4 µM)	relative viability (Bemcentinib + OSI-027; first compound 0.04 µM)	relative viability (Bemcentinib + OSI-027; first compound 0.1265 µM)	relative viability (Bemcentinib + OSI-027; first compound 0.4 µM)	relative viability (Bemcentinib + OSI-027; first compound 1.265 µM)	relative viability (Bemcentinib + OSI-027; first compound 4 µM)	relative viability (Bemcentinib + Crizotinib; first compound 0.04 µM)	relative viability (Bemcentinib + Crizotinib; first compound 0.1265 µM)	relative viability (Bemcentinib + Crizotinib; first compound 0.4 µM)	relative viability (Bemcentinib + Crizotinib; first compound 1.265 µM)	relative viability (Bemcentinib + Crizotinib; first compound 4 µM)	relative viability (Bemcentinib + Foretinib; first compound 0.04 µM)	relative viability (Bemcentinib + Foretinib; first compound 0.1265 µM)	relative viability (Bemcentinib + Foretinib; first compound 0.4 µM)	relative viability (Bemcentinib + Foretinib; first compound 1.265 µM)	relative viability (Bemcentinib + Foretinib; first compound 4 µM)
NCI-H23	0.725	0.745	0.814	0.758	0.806	0.581	0.612	0.713	0.447	0.684	0.493	0.608	0.522	0.613	0.482	0.916	1.2	1.15	1.09	1.08
NCI-H322M	0.897	0.864	0.855	0.85	0.937	0.585	0.596	0.597	0.621	0.597	1.02	0.971	0.944	1.05	1.09	0.939	1.01	0.919	1.11	0.97
NCI-H358	0.97	0.826	1.04	0.826	0.971	0.799	0.952	0.837	0.99	0.939	0.587	0.506	0.511	0.54	0.53	0.723	0.827	0.73	0.749	0.853
NCI-H441	0.86	0.74	0.756	0.467	0.976	0.583	0.695	0.765	0.558	0.659	0.66	0.704	0.757	0.665	0.779	1.16	1.05	0.892	0.917	0.875
NCI-H460	0.595	0.556	0.487	0.602	0.584	0.73	1.2	0.827	0.686	0.851	0.976	0.994	0.937	1.04	0.964	1.01	1.22	1.1	1.07	1
NCI-H520	0.917	1.11	1.2	1.01	0.919	0.237	0.24	0.262	0.247	0.258	0.53	0.823	0.912	0.971	0.686	0.957	0.748	0.911	0.685	0.791
NCI-H596	0.574	0.612	0.524	0.537	0.392	0.739	0.665	0.707	0.757	0.802	0.969	1.01	1.08	1.1	1.05	0.84	0.848	0.974	0.799	0.94
NCI-H647	1.1	1.22	1.25	1.13	1.08	0.696	0.799	0.637	0.666	0.649	1.13	1.39	1.1	1.12	1.21	1.33	1.22	1.24	1.49	1.2
